This is an account of results in patent US10966964B2, “Method for preparing pharmaceutical composition comprising pyrrolo-fused six-membered heterocyclic compound” (Jiangsu Hengrui Medicine Co., Ltd., priority 2016, dated 2021).

This data set in a line: Water solubility and moisture stability of the active ingredient (statement). The class given is physicochemical. The note with it: compound of formula (I) or a pharmaceutically acceptable salt thereof. The source says: Since the compound of formula (I) or a pharmaceutically acceptable salt thereof has poor water solubility, and is unstable in the presence of moisture, water cannot be used as a solvent for wet granulation. When the compound of formula (I) or a pharmaceutically acceptable salt thereof is formulated into a pharmaceutical composition by using a conventional preparation method, the resulting composition is difficult to dissolve rapidly and keep its quality stable. There is a need to find a suitable method to obtain a stable composition with a rapid dissolution.

As to `CCN(CC)CCN1CCc2[nH]c(/C=C3\C(=O)Nc4ccc(F)cc43)c(C)c2C1=O.O=C(O)C[C@H](O)C(=O)O` [compound of formula (I), 5-(2-diethylamino-ethyl)-2-(5-fluoro-2-oxo-1,2-dihydro-indol-3-ylidene-methyl)-3-methyl-1,5,6,7-tetrahydro-pyrrolo[3,2-c]pyridin-4-one], the “stability in the presence of moisture (in words)” value is on record as “unstable” and the “water solubility (in words)” value is on record as “poor”.
